Laboratory results reported in patent publication EP0714404B1, “ANTI-INFLAMMATORY PEPTIDES” (CURATIVE TECHNOLOGIES, INC., priority 1993, dated 1995).
Like-named read-outs stand apart in the source and are kept apart here. Residues, ends and D or L forms follow the SMILES beside them.

System: Arachidonic Acid Induced Inflammation
Format: in vivo, mice
Details: for % Reduction of Ear Swelling / Ear Thickness: sc minipump
Protocol: The anti-inflammatory properties of CT-112 (SEQ. ID NO: 1) were assessed using a standardized assay for anti-inflammatory activity, i.e., the mouse ear model in which arachidonic acid (AA) is used to induce an inflammatory reaction (Young et al., 1984, J. Invest. Dermatol. 82:367-371; Doherty, et al., 1988, J. Invest. Dermatol. 91:298-302).
Female mice (C57BL/6UAF, Charles River Breeding Laboratories, approximately 15-18 g) were obtained and acclimated for 2 weeks prior to use. The animals were approximately 14 weeks old at the start of the study.
To prepare minipumps for implantation, CT-112 (SEQ. ID NO: 1) was dissolved in PBS. The material was loaded into Alzet minipumps set to deliver 0.05 (5 animals), 0.1 (10 animals), 1 (10 animals), or 2.5 (5 animals) mg of CT-112 (SEQ. ID NO: 1) per animal per day. Minipumps for implantation into control animals contained only PBS. As a positive control, one set of 10 mice received 100 mg/kg of phenidone, a potent 5-lipoxygenase inhibitor which acts as an anti-inflammatory agent, 15 min prior to challenge with AA.
For subcutaneous implantation of minipumps, animals were anesthetized with Ketamine/Xylazine. The Ketamine (Aveco Lot #440140) was injected at 80 mg/kg and the Xylazine (Rugby Laboratories Lot #26040-B) at 16 mg/kg and the Alzet pumps were implanted subcutaneously in the dorsothoracic area. Animals were allowed to recover and then housed and given food and water ad libitum for 5 days.
On the sixth day following pump implantation, 0.01 ml of AA was applied to the inner and outer surfaces of the right ear by means of an automatic microliter pipette. One hr following AA application, the mice were sacrificed and ear thickness was measured with a Mitutoyo No. 7300 Gauge Caliper. The left ears were also measured as an internal control.
Mice were implanted with Alzet mini-pumps set to deliver 60 mg/kg/day for either 7, 3, or 1 days. A separate group of 5 mice received 3 intraperitoneal injections of CT-112 (60 mg/kg/injection) at 24, 1 and 0.25 hr prior to AA challenge. CT-112 (SEQ. ID NO: 1) was prepared for injection by dissolving the compound in Dulbecco's PBS to give a final CT-112 (SEQ. ID NO: 1) concentration of 5 mg/ml. The control mice were implanted with Alzet minipumps that delivered PBS for 7 days. The AA challenge was the same as described supra in Example 7.
Administration of CT-112 (SEQ. ID NO: 1) (60 mg/kg/injection) via multiple intraperitoneal injections was performed at the following times prior to AA challenge: • a) 6, 3, 1 and 0.25 hr; • b) 3, 1 and 0.25 hr; or • c) 1 and 0.25 hr.
In addition, the effect of a single administration of CT-112 (SEQ. ID NO: 1) (60 mg/kg) by intraperitoneal injection was performed at either 1 or 3 hr prior to AA challenge. Control mice had Alzet minipumps implanted to deliver PBS for 7 days prior to AA challenge. The AA challenge was the same as described supra in Example 7. The results of the multiple dosing regimens and the 1 hr and 3 hr single dosing regimens were compared to the anti-inflammatory activity of CT-112 (SEQ. ID NO: 1) delivered via Alzet minipump set to deliver 60 mg/kg/day for 7 days using 5 animals per treatment.
In a separate experiment, the effect of multiple intraperitoneal injections of CT-112 (SEQ. ID NO: 1) at either 6, 3, 1 and 0.25 hr, or 16, 3, 1 and 0.25 hr prior to AA challenge was assessed. The results of both multi-dosing regimens were compared to both phenidone (100 mg/kg administered 15 min prior to AA challenge) and CT-112 (SEQ. ID NO: 1) administered via Alzet mini-pump (60 mg/kg/day for 7 days). For this latter study, the number of animals receiving the single injection of CT-112 (SEQ. ID NO: 1) was increased from 5 to 10.
Administration to mice of CT-112 (SEQ. ID NO: 1) (60 mg/kg/injection) via multiple subcutaneous injections prior to AA challenge was performed at: • a) 6, 3, 1 and 0.25 hr; • b) 3, 1 and 0.25 hr; or • c) 1 and 0.25 hr. […]

[1] = 0.05 mg/animal/day, AA on sixth day

With CC(C)[C@H](NC(=O)[C@H](CCC(N)=O)NC(=O)[C@H](CO)NC(=O)[C@@H](NC(=O)[C@@H](N)[C@@H](C)O)[C@@H](C)O)C(=O)N[C@@H](CCCNC(=N)N)C(=O)N1CCC[C@H]1C(=O)N[C@@H](CCCNC(=N)N)C(=O)O [CT-112, Thr-Thr-Ser-Gln-Val-Arg-Pro-Arg] (H-TTSQVRPR-OH) the “% Reduction of Ear Swelling” value [1] was 43.1%, the “Ear Thickness” value [1] was 0.01577 ± 0.00155 (5) in and the “% Reduction of Ear Swelling” value (0.1 mg/animal/day) was 43.1%. The “Ear Thickness” value (0.1 mg/animal/day) was 0.01577 ± 0.00191 (10) in, the “% Reduction of Ear Swelling” value (1.0 mg/animal/day) was 89.0% and the “Ear Thickness” value (1.0 mg/animal/day) was 0.01128 ± 0.00291 (10) in. For the same compound, the “% Reduction of Ear Swelling” value (2.5 mg/animal/day) was 95.6%, the “Ear Thickness” value (2.5 mg/animal/day) was 0.0106 ± 0.00175 (5) in and the “Thickness Difference (Left-Right)” value (Table III, 1-day pump, 60 mg/kg/day) was -0.00074 ± 0.00119 in. For the same compound, the “Thickness Difference (Left-Right)” value (Table III, 3-day pump, 60 mg/kg/day) was -0.00115 ± 0.00058 in, the “Thickness Difference (Left-Right)” value (Table III, 7-day pump, 60 mg/kg/day) was -0.00051 ± 0.00116 in and the “Thickness Difference (Left-Right)” value (Table III, ip 60 mg/kg/injection at 24, 1 and 0.25 hr prior to AA) was 0.00226 ± 0.00124 in. The “Thickness Difference (Left-Right)” value (Table IV, 7-day pump, 60 mg/kg/day) was 0.00033 ± 0.00065 in, the “Thickness Difference (Left-Right)” value (Table IV, ip 60 mg/kg/injection at 1 and 0.25 hr prior to AA) was 0.00192 ± 0.00148 in and the “Thickness Difference (Left-Right)” value (Table IV, ip 60 mg/kg/injection at 3, 1 and 0.25 hr prior to AA) was 0.00141 ± 0.00138 in. The “Thickness Difference (Left-Right)” value (Table IV, ip 60 mg/kg/injection at 6, 3, 1 and 0.25 hr prior to AA) was 0.00144 ± 0.00126 in, the “Thickness Difference (Left-Right)” value (Table IV, single ip 60 mg/kg 1 hr prior to AA) was 0.00308 ± 0.00189 in and the “Thickness Difference (Left-Right)” value (Table IV, single ip 60 mg/kg 3 hr prior to AA) was 0.00116 ± 0.001 in. The “Thickness Difference (Left-Right)” value (Table V, 7-day pump, 60 mg/kg/day) was -0.00003 ± 0.0012(5) in, the “Thickness Difference (Left-Right)” value (Table V, ip injections at 6, 3, 1 and 0.25 hr prior to AA) was 0.00249 ± 0.0017(10) in and the “Thickness Difference (Left-Right)” value (Table V, ip injections at 16, 3, 1 and 0.25 hr prior to AA) was 0.00283 ± 0.00218(10) in. For the same compound, the “Thickness Difference (Left-Right)” value (Table VI, 7-day pump, 60 mg/kg/day) was 0.00083 ± 0.00084 in, the “Thickness Difference (Left-Right)” value (Table VI, sc 60 mg/kg/injection at 1 and 0.25 hr prior to AA) was 0.00195 ± 0.00131 in and the “Thickness Difference (Left-Right)” value (Table VI, sc 60 mg/kg/injection at 3, 1 and 0.25 hr prior to AA) was 0.00193 ± 0.0007 in. For the same compound, the “Thickness Difference (Left-Right)” value (Table VI, sc 60 mg/kg/injection at 6, 3, 1 and 0.25 hr prior to AA) was 0.00147 ± 0.00041 in, the “Thickness Difference (Left-Right)” value (Table VI, single sc 60 mg/kg 1 hr prior to AA) was 0.00174 ± 0.00128 in and the “Thickness Difference (Left-Right)” value (Table VI, single sc 60 mg/kg 3 hr prior to AA) was 0.00213 ± 0.00089 in. The “Thickness Difference (Left-Right)” value (Table VII, 3 day pump, 60 mg/kg/day) was 0.00127 ± 0.00128 in, the “Thickness Difference (Left-Right)” value (Table VII, single ip 3 hr prior to AA) was 0.00242 ± 0.00187 in and the “Thickness Difference (Left-Right)” value (Table VII, single sc 1 hr prior to AA) was 0.00214 ± 0.00122 in. The “Thickness Difference (Left-Right)” value (Table VII, single sc 3 hr prior to AA) was 0.00243 ± 0.00107 in, the “Thickness Difference (Left-Right)” value (Table VII, single sc 6 hr prior to AA) was 0.00117 ± 0.00066 in and the “Thickness Difference (Left-Right)” value (Table VII, single sc -.25 (hr) prior to AA) was 0.00252 ± 0.00128 in. For the same compound, the “Thickness Difference (Left-Right)” value (Table VIII, 3 day pump, 60 mg/kg/day) was 0.00058 ± 0.00086 in, the “Thickness Difference (Left-Right)” value (Table VIII, po 200 mg/kg/gavage at 1 and 0.25 hr prior to AA) was 0.00241 ± 0.00124 in and the “Thickness Difference (Left-Right)” value (Table VIII, po 200 mg/kg/gavage at 3, 1 and 0.25 hr prior to AA) was 0.0028 ± 0.00114 in. For the same compound, the “Thickness Difference (Left-Right)” value (Table VIII, po 200 mg/kg/gavage at 6, 3, 1 and 0.25 hr prior to AA) was 0.00134 ± 0.00257 in, the “Thickness Difference (Left-Right)” value (Table VIII, single gavage 200 mg/kg 1 hr prior to AA) was 0.00139 ± 0.00122 in and the “Thickness Difference (Left-Right)” value (Table VIII, single gavage 200 mg/kg 3 hr prior to AA) was 0.00031 ± 0.00198 in. The “Thickness Difference (Left-Right)” value (Table XI, 6 mg/kg/day, minipump, AA three days after implantation) was 0.00381 ± 0.00066 in, the “Thickness Difference (Left-Right)” value (Table XI, 60 mg/kg/day, minipump, AA three days after implantation) was 0.00095 ± 0.00064 in and the “Thickness Difference (Left-Right)” value (Table XIII, 24 hr via Alzet pump, 60 mg/kg/day) was 0.00132 ± 0.00086 in. For the same compound, the “Difference Treatment (Left - Right)” value (Table XIV, 24 hr via Alzet pump, 60 mg/kg/day) was 0.00134 ± 0.00044 in, the “Thickness Difference (Left-Right)” value (Table XV, 24 hr via Alzet pump, 60 mg/kg/day) was 0.00154 ± 0.00092 in and the “% Inhibition of Inflammation” value (mouse, in vivo, 6 mg/kg/day) was 40.8%. For the same compound, the “% Inhibition of Inflammation” value (mouse, in vivo, 60 mg/kg, 3 h) was 78.5%, the “% Inhibition of Inflammation” value (mouse, in vivo, 200 mg/kg, 1 h) was 72.3% and the “% Inhibition of Inflammation” value (mouse, in vivo, 200 mg/kg, 3 h) was 93.8%. The “% Inhibition of Inflammation” value (mouse, in vivo, ip, 60 mg/kg) was 62%, the “% Inhibition of Inflammation” value (mouse, in vivo, ip, 3 h) was 37.2% and the “inhibition of the inflammatory process” value (mouse, in vivo, po, 200 mg/kg) was 52-94%. For the same compound, the “% Inhibition of Inflammation” value (mouse, in vivo, sc) was 34.7%, the “% Inhibition of Inflammation” value (mouse, in vivo, sc, 60 mg/kg, 1 h) was 71.8% and the “% Inhibition of Inflammation” value (mouse, in vivo, sc, 60 mg/kg, 3 h) was 65.5%. The “% Inhibition of Inflammation” value (mouse, in vivo, sc, 1 h) was 44.5%, the “% Inhibition of Inflammation” value (mouse, in vivo, sc, 3 h) was 36.9% and the “% Inhibition of Inflammation” value (mouse, in vivo, sc, 6 h) was 69.6%. The reduction in inflammation (multiple IP injections at 6, 3, 1 and 0.25 hr or 16, 3, 1 and 0.25 hr prior to AA) was 56-61%, the duration of activity (subcutaneous injection, 60 mg/kg) was “greater than 6 hr” and the “inhibition of the inflammatory process” value (subcutaneous injection, all multi-dosing and single-dosing regimens, 60 mg/kg/injection) was “approximately 70%”.
